This note sets out measurements from article PMC6880826 (Beilstein Journal of Organic Chemistry, 2019).

Like-named read-outs stand apart in the source and are kept apart here. Where only a bound is given, the exact number is not on record here.

Series [1] can be described thus: Metabolic stability in mouse liver microsomes (MLM). The format is in vitro ADME. (In general: Microsomes from liver hold many membrane-bound enzymes, among them those of drug oxidation.)
Series [2] can be described thus: Mouse pharmacokinetics, plasma and brain, oral dose. As to conditions: p.o. 10 mg/kg. The format is in vivo, CD1 mouse. An excerpt: The route of administration and dose were selected to most closely match relevant published mouse disease model studies. […] Table S1: Study design summary S8 (1 picture or pasted object on this page, not shown here)
Another series addresses T1, Notum(81-451 Cys330Ser) (Homo sapiens, UniProt Q6P988, C330S).
T1 sequence (Q6P988 81-451 C330S): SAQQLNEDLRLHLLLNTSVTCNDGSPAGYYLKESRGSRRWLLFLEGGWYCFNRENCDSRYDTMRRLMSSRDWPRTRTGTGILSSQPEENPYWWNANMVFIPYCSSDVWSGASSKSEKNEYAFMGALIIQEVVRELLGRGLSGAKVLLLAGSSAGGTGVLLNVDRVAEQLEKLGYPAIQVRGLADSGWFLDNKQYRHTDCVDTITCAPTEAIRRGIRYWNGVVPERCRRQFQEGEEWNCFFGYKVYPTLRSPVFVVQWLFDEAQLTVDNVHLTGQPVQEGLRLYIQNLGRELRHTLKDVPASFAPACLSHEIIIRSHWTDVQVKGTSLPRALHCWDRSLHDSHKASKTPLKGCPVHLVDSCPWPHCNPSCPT
Put plainly: Notum OPTS fluorescence inhibition assay.

The next series concerns MDCK-MDR1 monolayer. As to the kind of experiment: MDCK-MDR1 monolayer permeability / P-gp efflux. The conditions noted are these: for efflux ratio: Table S4; for MDCK-mdr1 ER / MDCK-mdr1 AB / MDCK-mdr1 BA: csv file; for MDCK-mdr1 AB: AB direction; for MDCK-mdr1 BA: BA direction. The format is in vitro ADME.
The next series concerns P-gp (MDR1). Put plainly: MDCK-MDR1 monolayer permeability / P-gp efflux. The format is in vitro ADME. As to conditions: dog; for Papp: MDCK-MDR1, Table S4; for MDCK-MDR1 AB Papp: Table S4; for efflux ratio: MDCK-MDR1, csv file, read-out: MDCK-mdr1 ER.
Setting [3] is: Table S4, mouse liver microsomes.
[4] abbreviates: AB direction, read-out: MDCK-MDR1 AB Papp.
Setting [5] is: BA direction, read-out: MDCK-MDR1 BA Papp.

As to `O=C(O)CSc1ncnc2c(C3CC3)c(Cl)sc12` [Compound 1], the “Cli in mouse liver microsomes (MLM)” value in series [1] is given as 1.0 μL/min/mg protein. Besides, the “MLM Cli” value in series [1] (setting [3]) was found to be 1e+06 µL/min/mg. For the same molecule, in series [2] (CD1, po, brain), the Cmax (commonly the highest concentration seen after dosing) was determined as 500 ng/g; the Tmax (commonly the time at which the peak concentration occurs) was 2 h; the half-life (as a rule, the time needed for the level to fall by half in the phase considered) was 7.1 h. Further, in series [2] (CD1, po, plasma), the AUC(0-inf) (as a rule, total exposure, with the tail of the curve extrapolated) came to 354 µg·h/mL; the exposure AUC(0-t) (in general, the area under the concentration-time curve up to a stated or last time point) was found to be 303 µg·h/mL; the highest level (Cmax) was 35400 ng/mL; the Tmax is 2 h. In series [2] (CD1, po, plasma), the half-life is 8.8 h. Also, in series [2] (brain), the AUC0→t was 3,700 h·ng/g and the “AUC0→∞” value is on record as 4,080 h·ng/g.

With `CN(C)C(=O)CSc1ncnc2c(C3CC3)c(Cl)sc12` [Compound 17a], half-maximal inhibition on Notum(81-451 Cys330Ser) (IC50) required 7.5 nM.

For `O=C(CSc1ncnc2c(C3CC3)c(Cl)sc12)N1CCCCC1` [Compound 17b], the half-inhibitory concentration (IC50) (as a rule, the concentration at which inhibition is half-maximal) against Notum(81-451 Cys330Ser) came to 91 nM.

As for `O=C(CSc1ncnc2c(C3CC3)c(Cl)sc12)N1CCOCC1` [Compound 17c], the MLM Cli in series [1] (setting [3]) is more than 500 µL/min/mg. In addition, in series [1] (csv file), the “MLM Cli” value was more than 500 µL/min/mg. Also, in the series on MDCK-MDR1 monolayer, the efflux ratio is on record as 0.95, the “MDCK-mdr1 ER” value amounted to 0.95, the “MDCK-mdr1 AB” value was determined as 40 x10–6 cm/s and the “MDCK-mdr1 BA” value is reported as 38 x10–6 cm/s. In the series with P-gp (MDR1) (setting [4]), the apparent permeability coefficient (Papp) (as a rule, the rate of passage across a membrane or cell layer, normalised by area and donor concentration) was determined as 40 ×10⁻⁶ cm/s. Moreover, the apparent permeability coefficient (Papp) in the series on P-gp (MDR1) (setting [5]) turned out to be 38 ×10⁻⁶ cm/s. Besides, the half-maximal inhibitory concentration (IC50) against Notum(81-451 Cys330Ser) is 18 nM.

The molecule `O=C(CSc1ncnc2c(C3CC3)c(Cl)sc12)N1CCS(=O)(=O)CC1` [Compound 17d] showed an IC50 against Notum(81-451 Cys330Ser) of 48 nM.

Take `O=C(CSc1ncnc2c(C3CC3)c(Cl)sc12)N1CC2COCC2C1` (stereo not shown) [Compound 17e]: the MLM Cli in series [1] (setting [3]) and in series [1] (csv file) was more than 500 µL/min/mg throughout. In addition, half-maximal inhibition on Notum(81-451 Cys330Ser) (IC50) required 10 nM.

As for `O=C(CSc1ncnc2c(C3CC3)c(Cl)sc12)N1CC2(COC2)C1` [Compound 17f], the MLM Cli in series [1] (setting [3]) and in series [1] (csv file) was 100 µL/min/mg each time. This molecule came in with an IC50 on Notum(81-451 Cys330Ser) of 10 nM.

`O=C1CN(C(=O)CSc2ncnc3c(C4CC4)c(Cl)sc23)CN1` [Compound 17g] gave an MLM Cli in series [1] (setting [3]) of 19 µL/min/mg. Besides, the “MLM Cli” value in series [1] (csv file) was 19 µL/min/mg. Moreover, in the series with MDCK-MDR1 monolayer, the efflux ratio is 3.7, the “MDCK-mdr1 ER” value came to 3.7, the “MDCK-mdr1 AB” value is given as 3.8 x10–6 cm/s and the “MDCK-mdr1 BA” value worked out at 14 x10–6 cm/s. In the series on P-gp (MDR1) (AB direction), this molecule came in with an MDCK-MDR1 AB Papp of 3.8 ×10⁻⁶ cm/s. For the same molecule, the Papp in the series with P-gp (MDR1) (setting [5]) stood at 14 ×10⁻⁶ cm/s. This molecule registered an IC50 at Notum(81-451 Cys330Ser) of 1.5 nM.

`CN1CN(C(=O)CSc2ncnc3c(C4CC4)c(Cl)sc23)CC1=O` [Compound 17h]: the MLM Cli in series [1] (setting [3]) and in series [1] (csv file) was 45 µL/min/mg each time. For the same molecule, the efflux ratio in the series on MDCK-MDR1 monolayer and with P-gp (MDR1) was 2.2 in each case. Further, in the series with MDCK-MDR1 monolayer, the “MDCK-mdr1 AB” value worked out at 6 x10–6 cm/s. Besides, the “MDCK-mdr1 BA” value with MDCK-MDR1 monolayer turned out to be 13 x10–6 cm/s. Moreover, the figures for the apparent permeability (Papp) with P-gp (MDR1) (setting [4]) and with P-gp (MDR1) (setting [5]) were 6 ×10⁻⁶ cm/s and 13 ×10⁻⁶ cm/s, respectively. The molecule also had an IC50 against Notum(81-451 Cys330Ser) of 1.5 nM.

For `O=C1CN(C(=O)CSc2ncnc3c(C4CC4)c(Cl)sc23)CCN1` [Compound 17i], the MLM Cli in series [1] (setting [3]) amounted to 24 µL/min/mg. For the same molecule, the “MLM Cli” value in series [1] (csv file) stood at 24 µL/min/mg. For the same molecule, in the series on MDCK-MDR1 monolayer, the efflux ratio was found to be 8.2, the “MDCK-mdr1 ER” value turned out to be 8.2, the “MDCK-mdr1 AB” value is 7.9 x10–6 cm/s and the “MDCK-mdr1 BA” value came out at 65 x10–6 cm/s. Moreover, in the series with P-gp (MDR1) (setting [4]), the apparent permeability (Papp) was 7.9 ×10⁻⁶ cm/s. Besides, the apparent permeability (Papp) in the series with P-gp (MDR1) (setting [5]) turned out to be 65 ×10⁻⁶ cm/s. Further, 7.1 nM corresponded to half-maximal inhibition against Notum(81-451 Cys330Ser) (IC50).

`O=C1CN(C(=O)CSc2ncnc3c(C4CC4)c(Cl)sc23)CCCN1` [Compound 17j] showed an IC50 against Notum(81-451 Cys330Ser) of 36 nM.

Take `O=C1CCN(C(=O)CSc2ncnc3c(C4CC4)c(Cl)sc23)CCN1` [Compound 17k]: at Notum(81-451 Cys330Ser), inhibition was half-maximal at 49 nM (IC50).

With `O=C(CSc1ncnc2c(C3CC3)c(Cl)sc12)N1CCc2ncccc2C1` [Compound 17l], the IC50 at Notum(81-451 Cys330Ser) stood at 4.6 nM.

As to `O=C(CSc1ncnc2c(C3CC3)c(Cl)sc12)N1CCn2ccnc2C1` [Compound 17m], the MLM Cli in series [1] (setting [3]) and in series [1] (csv file) was 290 µL/min/mg throughout. The efflux ratio in the series on MDCK-MDR1 monolayer and with P-gp (MDR1) was 1.2 in each case. The “MDCK-mdr1 AB” value with MDCK-MDR1 monolayer turned out to be 21 x10–6 cm/s. For the same molecule, in the series with MDCK-MDR1 monolayer, the “MDCK-mdr1 BA” value is 25 x10–6 cm/s. Besides, the Papp in the series with P-gp (MDR1) (setting [4]) stood at 21 ×10⁻⁶ cm/s; in the series on P-gp (MDR1) (setting [5]), 25 ×10⁻⁶ cm/s. This molecule also returned an IC50 against Notum(81-451 Cys330Ser) of 2.7 nM.

In the case of `O=C(CSc1ncnc2c(C3CC3)c(Cl)sc12)N1CCn2cncc2C1` [Compound 17n], the MLM Cli in series [1] (setting [3]) and in series [1] (csv file) was 49 µL/min/mg in each case. Moreover, the efflux ratio with MDCK-MDR1 monolayer and in the series on P-gp (MDR1) was 3.4 in each case. Also, the “MDCK-mdr1 AB” value in the series with MDCK-MDR1 monolayer worked out at 9 x10–6 cm/s. In addition, the “MDCK-mdr1 BA” value in the series with MDCK-MDR1 monolayer is listed as 31 x10–6 cm/s. The Papp in the series with P-gp (MDR1) (setting [4]) was 9 ×10⁻⁶ cm/s; with P-gp (MDR1) (setting [5]), 31 ×10⁻⁶ cm/s. Moreover, the half-inhibitory concentration (IC50) against Notum(81-451 Cys330Ser) came to 2.5 nM.

In turn, `O=C(CSc1ncnc2c(C3CC3)c(Cl)sc12)N1CCc2[nH]cnc2C1` [Compound 17o] showed an IC50 at Notum(81-451 Cys330Ser) of 2.3 nM.

As to `O=C(CSc1ncnc2c(C3CC3)c(Cl)sc12)N1CCn2cnnc2C1` [Compound 17p], the MLM Cli in series [1] (setting [3]) stood at 29 µL/min/mg. Moreover, the “MLM Cli” value in series [1] (csv file) amounted to 29 µL/min/mg. Further, in the series on MDCK-MDR1 monolayer, the efflux ratio was determined as 98, the “MDCK-mdr1 ER” value amounted to 98, the “MDCK-mdr1 AB” value was determined as 0.95 x10–6 cm/s and the “MDCK-mdr1 BA” value is recorded as 93 x10–6 cm/s. In the series with P-gp (MDR1) (AB direction), the MDCK-MDR1 AB Papp came out at 0.95 ×10⁻⁶ cm/s. Besides, in the series on P-gp (MDR1) (setting [5]), the Papp came to 93 ×10⁻⁶ cm/s. In addition, the IC50 against Notum(81-451 Cys330Ser) stood at 1.2 nM.

Turning to `O=C(CSc1ncnc2c(C3CC3)c(Cl)sc12)N1CCn2c(nnc2C(F)(F)F)C1` [Compound 17q], the MLM Cli in series [1] (setting [3]) and in series [1] (csv file) was 190 µL/min/mg each time. Also, the efflux ratio in the series on MDCK-MDR1 monolayer and with P-gp (MDR1) was 2.8 each time. In addition, the “MDCK-mdr1 AB” value in the series with MDCK-MDR1 monolayer was determined as 12 x10–6 cm/s. In the series with MDCK-MDR1 monolayer, the “MDCK-mdr1 BA” value was found to be 34 x10–6 cm/s. Also, the Papp was determined as 12 ×10⁻⁶ cm/s with P-gp (MDR1) (setting [4]) and 34 ×10⁻⁶ cm/s with P-gp (MDR1) (setting [5]). The molecule also registered a concentration for half-maximal inhibition (IC50) at Notum(81-451 Cys330Ser) of 8 nM.

`O=C(CSc1ncnc2c(C3CC3)c(Cl)sc12)N1CCn2nncc2C1` [Compound 17r]: the MLM Cli in series [1] (setting [3]) and in series [1] (csv file) was 110 µL/min/mg throughout. Besides, the efflux ratio in the series with MDCK-MDR1 monolayer and in the series on P-gp (MDR1) was 1.1 each time. The “MDCK-mdr1 AB” value with MDCK-MDR1 monolayer came out at 26 x10–6 cm/s. In addition, the “MDCK-mdr1 BA” value in the series on MDCK-MDR1 monolayer is recorded as 28 x10–6 cm/s. Besides, the apparent permeability coefficient (Papp) with P-gp (MDR1) (setting [4]) is 26 ×10⁻⁶ cm/s; in the series with P-gp (MDR1) (setting [5]), 28 ×10⁻⁶ cm/s. This molecule also displayed a half-maximal inhibitory concentration (IC50) on Notum(81-451 Cys330Ser) of 2.4 nM.
